# From US11795510B2, “Identification of epigenomic reprogramming in cancer and uses thereof” (The Johns Hopkins University, priority 2016, dated 2023)
# Entries after “also recorded” stand apart in the source; their conditions may differ.
# Key:
# Assay type in all cases: cell-based, human
# [1] = system: local-regional PDAC samples; assay: 3-D suspension tumorsphere assay, local-regional PDACs
# Experimental: 3-D matrigel assays were adapted from Cheung et al. (Control of alveolar differentiation by the lineage transcription factors GATA6 and HOPX inhibits lung adenocarcinoma metastasis. Cancer Cell 23, 725-38 (2013)). Briefly, 2-D cultures were trypsinized into single cells, 4,000cells/mL were suspended and thoroughly mixed in ice-cold DMEM containing 5% matrigel (BD systems) and 2% FBS (+/−DMSO/6AN as needed), 500 ul plated in quadruplicate into 24 well ultra-low attachment plates, and incubated for at least 7 days to allow tumor growth. Well-formed tumors were then counted and representative photographs taken with an EVOS instrument. 3-D suspension tumorsphere assays were performed with 20,000 starting cells/well in ultra-low attachment 6 well plates as described, and tumors counted/photographed after at least 7 days of tumor growth.
# [2] = system: distant metastatic and precursor subclones; assay: YSI metabolite analysis (glucose/glutamine consumption, lactate/glutamate secretion)
# Experimental: Tissue samples and cell lines were previously collected from PDAC patients by rapid autopsy, sequenced-validated, and monitored for mycoplasma as previously described. Low passage (2-17) rapid autopsy cell lines were cultured at 37° C. in DMEM with 10% fetal bovine serum (FBS, Gibco). For MTT assays, 15,000 cells/well were plated into 96 well plates in triplicate, treated 12 hours later, and assayed after 24 hr (glucose responses) or 6 days (chemotherapy) with CellTiter96 (Promega). For glucose response assays, nutrient-deplete DMEM (no glucose, glutamine, pyruvate, or serum) was used with addition of glucose as indicated. […] Cells were then washed with PBS, trypsinized, and viable cells counted with a hemocytometer. Glucose uptake and lactate secretion were measured with a YSI 7100 Bioanalyzer as described in the supplementary methods. […]
# YSI metabolite analysis. Metabolite consumption (glucose and glutamine) and production (lactate and glutamate) were measured using a YSI 7100 Bioanalyzer. […] At day 0 cells were counted (3 wells) or cultured in either regular medium or medium supplemented with the indicated compound. […] The area under the curve (AUC) was calculated as N(T)d/ln2([…]), where N(T) is the final cell count, d is doubling time, and T is time of experiment. […]
# [3] = system: global chromatin modifications (H3K9Me2/3, acetylation) in distant metastatic subclones (A38Lg); assay: Western blots of histone modifications, distant metastatic subclones
# Experimental: Histones were acid extracted as described and western blots performed on 3.5 ug histones, which were checked by Ponceau stains prior to western blot to ensure equal loading. Densitometry was performed with ImageJ software. RNA was extracted with Trizol reagent (Life Technologies) and isopropanol precipitated. Genomic DNA was purified with MasterPure DNA extraction reagents (Epicenter). Immunohistochemistry, H&E staining, and immunofluorescence on formalin-fixed, paraffin-embedded (FFPE) tissue microarray sections (TMAs) were performed according to standard procedures.
# RNAi experiments were performed with siRNA transfections (Oligofectamine, Life Technologies) using negative control siRNA (Sigma, SIC001) and pre-designed siRNA oligonucleotides against indicated genes in parallel (Sigma, PGD: SASI_Hs02 00334150, CDH2: SASI_Hs01_00153995, TOP2B: SASI_Hs02_00311874). siRNAs against mutant KRAS^G12V (CUACGCCAACAGCUCCAAC) (SEQ ID NO:1) were custom designed. Cells were incubated with siRNAs for 4 days after transfection and harvested. For drug treatments in 2-D, cells were grown to 70-80% confluency and treated for 3 days with 250 uM 6AN or DMSO negative control.
smiles,measurement,setting,value
"NC(=O)c1ccc(N)nc1 [6AN, 6-aminonicotinamide]",tumor formation in 3-D suspension tumorsphere assays,[1],minimal effects; also recorded: did not interfere
same,glutamine consumption or glutamate secretion,[2],no effect
same,rates of glucose consumption and lactate secretion,[2],selectively slowed
same,persistence of chromatin changes upon removal of 6AN from the media,[3]; 3d treatment followed by removal for an additional 3d,persisted
same,"H3K27Me3 or H4K20Me3, western blot densitometry",[3]; across distant metastatic subclones,minimal or non-recurrent effects
same,"reprogrammed chromatin modifications (H3K9Me2, acetylation), western blot densitometry","[3]; across distant metastatic subclones, 250 uM, 3 days",quantitatively reversed; also recorded: selectively reversed
same,acetylation (western blot),[3]; distant metastatic subclones,decreased
same,global H3K9Me2 (western blot),[3]; distant metastatic subclones,generally increased
same,"reprogrammed chromatin state (global H3K9Me2/3 and acetylation, western blots)",[3]; paired lung metastasis A38Lg,reversed the reprogrammed chromatin state
